Experimental data from ChEMBL document CHEMBL1201862, “PubChem BioAssay data set” (2004).
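Five compound concentrations were applied to cells in 96-well plates for 48 hours; endpoints were derived by simple linear interpolation of the resulting dose-response curve. GI50 = concentration required for 50% inhibition of growth.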 Activity calls are given as the source filed them. No stated cut-off is given here; in the data, active = GI50 up to about 1.1 µM and inactive = higher.

Tests used:
Experiment in all cases: growth of human tumour cells (NCI), 48 h
OVCAR-4 = test system: OVCAR-4
HOP-18 = test system: HOP-18
Malme-3M = test system: Malme-3M
A549 = test system: A549
SK-MEL-2 = test system: SK-MEL-2
LOX IMVI = test system: LOX IMVI
OVCAR-5 = test system: OVCAR-5
HCT-15 = test system: HCT-15
EKVX = test system: EKVX
SF-268 = test system: SF-268
UO-31 = test system: UO-31
SW-620 = test system: SW-620
SF-539 = test system: SF-539
RPMI-8226 = test system: RPMI-8226
MCF7 = test system: MCF7
SK-MEL-28 = test system: SK-MEL-28
KM12 = test system: KM12
HCT-116 = test system: HCT-116
SNB-19 = test system: SNB-19
KM-20L2 = test system: KM-20L2
HL-60 = test system: HL-60
SF-295 = test system: SF-295
SK-MEL-5 = test system: SK-MEL-5
HCC 2998 = test system: HCC 2998
SNB-75 = test system: SNB-75
DMS-114 = test system: DMS-114
SNB-78 = test system: SNB-78
OVCAR-3 = test system: OVCAR-3
SK-OV-3 = test system: SK-OV-3
SN12C = test system: SN12C
K562 = test system: K562
RXF 393 = test system: RXF 393
NCI-H23 = test system: NCI-H23
UACC-62 = test system: UACC-62
COLO 205 = test system: COLO 205
NCI-H522 = test system: NCI-H522
NCI-H460 = test system: NCI-H460
DMS-273 = test system: DMS-273
XF498 = test system: XF498
NCI/ADR-RES = test system: NCI/ADR-RES
DLD-1 = test system: DLD-1
M19-MEL = test system: M19-MEL
NCI-H226 = test system: NCI-H226
A498 = test system: A498
HT-29 = test system: HT-29
UACC-257 = test system: UACC-257
MOLT-4 = test system: MOLT-4
HOP-62 = test system: HOP-62
CCRF-CEM = test system: CCRF-CEM
IGROV-1 = test system: IGROV-1
U-251 = test system: U-251
OVCAR-8 = test system: OVCAR-8
CAKI-1 = test system: CAKI-1
TK-10 = test system: TK-10
ACHN = test system: ACHN
786-0 = test system: 786-0
LXFL 529 = test system: LXFL 529
HOP-92 = test system: HOP-92
M14 = test system: M14
SR = test system: SR

Measured: GI50

C=CC1(NC(=O)c2ccccc2)CCC(C(C)(C)C)CC1 (centres undefined)
32.4 µM: HCT-15
inactive: OVCAR-4 27.7 µM | HOP-18 47.5 µM | Malme-3M 34.2 µM | A549 30.5 µM | SK-MEL-2 25.2 µM | LOX IMVI 20.3 µM | OVCAR-5 28.1 µM | EKVX > 47.1 µM | SF-268 43.2 µM | UO-31 22 µM | SW-620 35.3 µM | SF-539 44.3 µM | RPMI-8226 20.9 µM | MCF7 30.8 µM | SK-MEL-28 42.6 µM | KM12 35.2 µM | HCT-116 22.8 µM | SNB-19 30.1 µM | KM-20L2 19.1 µM | HL-60 14.4 µM | SF-295 7.26 µM | SK-MEL-5 19.9 µM | HCC 2998 36.7 µM | SNB-75 31.5 µM | DMS-114 27.7 µM | SNB-78 39.1 µM | OVCAR-3 29.6 µM | SK-OV-3 80.7 µM | SN12C 35.2 µM | K562 30.8 µM | RXF 393 49.3 µM | NCI-H23 32 µM | UACC-62 26.6 µM | COLO 205 21.7 µM | NCI-H522 30.8 µM | NCI-H460 31.1 µM | DMS-273 32.2 µM | XF498 > 43.1 µM | NCI/ADR-RES 19.6 µM | DLD-1 36.6 µM | M19-MEL 29.5 µM | NCI-H226 27.8 µM | A498 48.2 µM | HT-29 23.9 µM | UACC-257 26.4 µM | MOLT-4 10.6 µM | HOP-62 35.8 µM | CCRF-CEM 18.5 µM | IGROV-1 37.6 µM | U-251 22.5 µM | OVCAR-8 49.7 µM

CCOC(=O)NC(=O)c1cn(CCCOC(=O)NCCCCCCNC(=O)OCCCn2cc(C(=O)NC(=O)OCC)c(=O)[nH]c2=O)c(=O)[nH]c1=O
28.2 µM: HCT-15
inactive: OVCAR-4 7.4 µM | HOP-18 82.8 µM | A549 > 100 µM | LOX IMVI 43.1 µM | EKVX > 100 µM | SW-620 26 µM | SF-539 18.5 µM | RPMI-8226 14.1 µM | SK-MEL-28 28.3 µM | HCT-116 35.1 µM | SNB-19 28.6 µM | KM-20L2 50 µM | HL-60 16.7 µM | SF-295 22.5 µM | SK-MEL-5 37.5 µM | CAKI-1 11.9 µM | HCC 2998 20 µM | SNB-75 23.3 µM | DMS-114 15.3 µM | TK-10 29.8 µM | SNB-78 36.7 µM | ACHN 18.7 µM | OVCAR-3 17.4 µM | SK-OV-3 66.1 µM | SN12C 47.6 µM | K562 7.67 µM | 786-0 20 µM | RXF 393 > 10 µM | NCI-H23 > 10 µM | UACC-62 20.1 µM | COLO 205 19.8 µM | NCI-H460 77.4 µM | DMS-273 30.7 µM | LXFL 529 57.4 µM | DLD-1 31.3 µM | M19-MEL 31.9 µM | A498 22.8 µM | HT-29 63.4 µM | UACC-257 19.2 µM | HOP-92 24.3 µM | MOLT-4 36.3 µM | HOP-62 40.1 µM | CCRF-CEM 5.4 µM | M14 20.4 µM | IGROV-1 41.9 µM | U-251 18.1 µM | OVCAR-8 31.3 µM

COC(=O)[C@H]1C=C[C@@H](C)n2c(=O)c3ccccc3c(=O)n21
inactive: OVCAR-4 > 100 µM | Malme-3M > 100 µM | A549 > 100 µM | SK-MEL-2 > 100 µM | LOX IMVI > 100 µM | OVCAR-5 > 100 µM | SR > 100 µM | EKVX > 100 µM | SF-268 > 100 µM | UO-31 > 100 µM | SW-620 > 100 µM | SF-539 > 100 µM | RPMI-8226 > 100 µM | SK-MEL-28 > 100 µM | KM12 > 100 µM | HCT-116 > 100 µM | SNB-19 > 100 µM | KM-20L2 > 100 µM | HL-60 > 100 µM | SF-295 > 100 µM | SK-MEL-5 > 100 µM | CAKI-1 > 100 µM | HCC 2998 > 100 µM | SNB-75 > 100 µM | DMS-114 > 100 µM | TK-10 > 100 µM | SNB-78 > 100 µM | ACHN > 100 µM | OVCAR-3 > 100 µM | SK-OV-3 > 100 µM | SN12C > 100 µM | K562 > 100 µM | 786-0 > 100 µM | RXF 393 > 100 µM | NCI-H23 > 100 µM | COLO 205 > 100 µM | NCI-H522 > 100 µM | NCI-H460 > 100 µM | DMS-273 > 100 µM | LXFL 529 > 100 µM | XF498 > 100 µM | DLD-1 > 100 µM | M19-MEL > 100 µM | NCI-H226 > 100 µM | A498 > 100 µM | HT-29 > 100 µM | UACC-257 > 100 µM | HOP-92 > 100 µM | MOLT-4 > 100 µM | HOP-62 > 100 µM | CCRF-CEM > 100 µM | M14 > 100 µM | IGROV-1 > 100 µM | U-251 > 100 µM | OVCAR-8 > 100 µM
> 100 µM: HCT-15

Cc1ccc(C(=O)C(C2=Nc3nnc(N)n3C2=O)C2=Nc3nnc(N)n3C2=O)cc1
inactive: OVCAR-4 > 100 µM | Malme-3M > 100 µM | A549 > 100 µM | SK-MEL-2 > 100 µM | LOX IMVI > 100 µM | OVCAR-5 > 100 µM | EKVX > 100 µM | SF-268 > 100 µM | UO-31 > 100 µM | SW-620 > 100 µM | SF-539 > 100 µM | RPMI-8226 > 100 µM | SK-MEL-28 > 100 µM | KM12 > 100 µM | SNB-19 > 100 µM | KM-20L2 > 100 µM | HL-60 > 100 µM | SF-295 > 100 µM | SK-MEL-5 > 100 µM | CAKI-1 > 100 µM | HCC 2998 > 100 µM | SNB-75 > 100 µM | DMS-114 > 100 µM | TK-10 > 100 µM | SNB-78 > 100 µM | ACHN > 100 µM | OVCAR-3 > 100 µM | SK-OV-3 > 100 µM | SN12C > 100 µM | K562 > 100 µM | 786-0 > 100 µM | RXF 393 > 100 µM | NCI-H23 > 100 µM | UACC-62 > 100 µM | COLO 205 > 100 µM | NCI-H522 > 100 µM | NCI-H460 > 100 µM | DMS-273 > 100 µM | LXFL 529 > 100 µM | XF498 > 100 µM | DLD-1 > 100 µM | M19-MEL > 100 µM | NCI-H226 > 100 µM | A498 > 100 µM | HT-29 > 100 µM | UACC-257 > 100 µM | HOP-92 > 100 µM | MOLT-4 > 100 µM | CCRF-CEM > 100 µM | M14 > 100 µM | IGROV-1 > 100 µM | OVCAR-8 > 100 µM
> 100 µM: HCT-15
